The text below walks through data of patent US20230107216A1, “PANTETHEINE DERIVATIVES AND USES THEREOF” (Comet Therapeutics, Inc., priority 2018, published 2023).

Read-outs that look alike come from different tables or passages of the source.

The test system of test [1] is Propionic Acidemia (PA) primary fibroblasts Tsi 6337. The test is described as follows: Mitochondrial respiration, XFe96 Extracellular Flux Analyzer (OCR/ECAR), PA fibroblasts Tsi 6337. It is filed as cell-based. The conditions noted are these: Homo sapiens, Fibroblast, read-out: Increase in Maximal Respiratory Capacity AUC. As to the method: The effect of the compounds of the present disclosure on mitochondrial respiration was measured with a XFe96 Extracellular Flux Analyzer (Seahorse Bioscience, Agilent Technologies) and Oxygen consumption Rate (OCR) and Extracellular acidification rate (ECAR) determined.
Cell culture and treatments. Primary adherent fibroblasts were cultured in minimum essential medium (MEM) (Gibco, 25030081) supplemented with 2 mM L-Glutamine (Gibco, 25030081), 15% fetal bovine serum (FBS) (Gibco, 26400044) and 1% penicillin/streptomycin (Gibco, 5140122) at 37° C. and 5% CO2. Cells were collected for either passaging or experiment at ˜70-80% confluence. Cells were obtained by trypsinization and seeded at 20000 cells/well in cell culture microplates (Seahorse Bioscience, 101085-004) and allowed to adhere for 16 hours in culture media.
By profiling different primary cells and/or optimizing their culture media or environmental components one can select cell lines and/or conditions that are appropriate for the biological or disease model. In the present example, 24 hours prior to OCR and ECAR profiling, media was changed to Dulbecco's Modified Eagle Medium (DMEM, Agilent Seahorse 103575-100) with the appropriate supplements for the different primary cells (10 mM glucose, 2 mM L-glutamine, 1 mM pyruvate, 10% FBS; 1 mM glucose, 2 mM L-glutamine, 1 mM pyruvate, 10% FBS; 10 mM glucose, 10% FBS; 5 mM glucose 10% FBS; 1 mM glucose 10% FBS). Cells used in this example were: Propionic Acidemia (PA) (GM00371, GM03590 Coriell Institute for Medical Research, Tsi 6337, Tsi 4626, Tsi 3618 Trans-Hit Bio), Methylmalonic Acidemia (MMA) (GM01673, Coriell Institute for Medical Research, Tsi 5224 Trans-Hit Bio), Branched chain ketoacid dehydrogenase kinase (BCKDK) (GM00612, GM00649 Coriell Institute for Medical Research), Subnormal activation of pyruvate dehydrogenase complex (PDH) (GM01503 Coriell Institute for Medical Research), Very long-chain acyl-CoA dehydrogenase (VLCAD) (GM17475), Leigh Syndrome (LS) (GM03672, GM13411 Coriell Institute for Medical Research), Pyruvate Carboxylase Deficiency (PC) (GM00444 Coriell Institute for Medical Research), Glutaric Acidemia-I (GA) (GM10653), Friedreich's Ataxia (FXN) (GM04078 Coriell Institute for Medical Research, Huntington's disease (HD) (GM21756 Coriell Institute for Medical Research), Ornithine Transcarbamylase Deficiency (OTC) (GM12756 Coriell Institute for Medical Research), Kearns-Sayre Syndrome (KSS) (GM06225 Coriell Institute for Medical Research).
One hour before the assay, the cells were washed with freshly prepared unbuffered serum free-Seahorse XF Assay medium (Seahorse Bioscience, North America, USA, 103575-100) with the same supplements as for the previous 24 hour incubation.
After baseline measurements of OCR, cells were challenged with compounds of the present disclosure at different concentrations (10 to 50 μM) or vehicle (DMSO, 0.1%) and a post-compound baseline was recorded. OCR was measured after sequentially adding to each well 1 μg/ml oligomycin (inhibitor of ATP synthase Sigma-Aldrich, 753531), then maximal OCR was determined with carbonyl cyanide 4-(trifluoromethoxy) phenylhydrazone (FCCP, Sigma-Aldrich, C2920), (uncoupler of oxidative phosphorylation) and 0.5 μM of rotenone (Sigma-Aldrich, R8875) plus antimycin A (Sigma-Aldrich, A8674) (inhibitors of mitochondrial complex I and III) for determination of rotenone-antimycin insensitive respiration together with Hoechst for nuclear staining in situ when normalized to cell counts. After the analysis and nuclear staining, the XFp microplate was transferred to the Cytation 5, and the nuclear images were captured, the individual nuclei were identified and counted by BioTek Gen5 software. Data were expressed as pmol of O2 per minute and normalized by nuclear staining and baselined to pre-compound addition.
Assay conditions were as stated below.
Assay specifics on assay conditions are indicated below when readouts were normalized to cell counts. […]

The subject of another test is HepG2 cells. The test is described as follows: Mitochondrial membrane potential (MITO-ID MP detection Kit). It is filed as cell-based. Particulars: Homo sapiens, 168 h, 7 days; for inhibition at 50 µM / inhibition at 10 µM: read-out: % decrease in Mitochondrial Membrane Potential; for activation at 10 µM: read-out: % increase in Mitochondrial Membrane Potential. The method, boiled down:
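Cells plated at 160000 cells/mL in DMEM with 10% FBS and 1% Pen-Strep, adhered overnight at 37° C., 5% CO2. Exposure to test compounds (50-10 μM) or 0.2% DMSO for 7 days without media change; membrane potential measured with MITO-ID MP detection kit per manufacturer.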

Where [2] appears, read: PA Tsi 6337, assay condition D (1 mM glucose, 10% FBS).
[3] abbreviates: PA Tsi 6337, assay condition A (10 mM glucose, 2 mM L-glutamine, 1 mM pyruvate, 10% FBS).

Consider `COC(=O)C(C)C(=O)SCCNC(=O)CCNC(=O)[C@H](O)C(C)(C)CO` (stereo partly drawn) [Compound 405], for which the activation at 10 µM in test [1] (setting [2]) is no less than 10%. In the test with HepG2 cells, the inhibition at 50 µM was greater than 50%.

Consider `CCC(C)C(=O)CC(=O)SCCNC(=O)CCNC(=O)[C@H](O)C(C)(C)CO` (stereo partly drawn) [Compound 1240, S-(2-(3-((R)-2,4-dihydroxy-3,3-dimethylbutanamido)propanamido)ethyl) 4-methyl-3-oxohexanethioate], for which the activation at 10 µM in test [1] (setting [2]) is no less than 10%. Besides, the inhibition at 50 µM with HepG2 cells was greater than 50%.

Consider `COC(=O)CCC(=O)SCCNC(=O)CCNC(=O)[C@H](O)C(C)(C)CO` [Compound 4, Methyl (R)-4-((2-(3-(2,4-dihydroxy-3,3-dimethylbutanamido)propanamido)ethyl)thio)-4-oxobutanoate], for which, in the test on HepG2 cells, the inhibition at 10 µM is greater than 30%.

As to `COC(=O)CC[C@H](N)C(=O)SCCNC(=O)CCNC(=O)[C@H](O)C(C)(C)CO` [Compound 411], the activation at 10 µM in test [1] (setting [3]) is no less than 10%; in test [1] (setting [2]) it was no less than 10%; with HepG2 cells, 10%. The inhibition at 50 µM in the test with HepG2 cells is greater than 20%.

Take `CC(O)C(C(=O)SCCNC(=O)CCNC(=O)[C@H](O)C(C)(C)CO)C(C)O` (stereo partly drawn) [Compound 1285, (2R)-2,4-dihydroxy-N-[2-[(2-[[3-hydroxy-2-(1-hydroxyethyl)butanoyl]sulfanyl]ethyl)carbamoyl]ethyl]-3,3-dimethylbutanamide]: in the test with HepG2 cells, the inhibition at 50 µM is greater than 30%.

On to `CC(C)(CO)[C@@H](OC(=O)CCC(=O)O)C(=O)NCCC(=O)NCCS` [Compound 1311, (R)-4-((4-hydroxy-1-((3-((2-mercaptoethyl)amino)-3-oxopropyl)amino)-3,3-dimethyl-1-oxobutan-2-yl)oxy)-4-oxobutanoic acid], for which the values for the activation at 10 µM (in test [1] (setting [3]); in the test on HepG2 cells) were no less than 10% and greater than 10%, respectively.

Turning to `CC(O)CC(O)CC(=O)SCCNC(=O)CCNC(=O)[C@H](O)C(C)(C)CO` (stereo partly drawn) [Compound 400], the activation at 10 µM in the test with HepG2 cells was greater than 20%.

Turning to `C[C@H](CC(=O)SCCNC(=O)CCNC(=O)[C@H](O)C(C)(C)CO)OC(=O)CCC(=O)O` [Compound 1243, 4-{[(2R)-4-[(2-{3-[(2R)-2,4-dihydroxy-3,3-dimethylbutanamido]propanamido}ethyl)sulfanyl]-4-oxobutan-2-yl]oxy}-4-oxobutanoic acid], in test [1] (setting [3]), the activation at 10 µM is no less than 10%.

In the case of `C/C=C/C(=O)SCCNC(=O)CCNC(=O)[C@H](O)C(C)(C)COP(=O)(O)O` [Compound 82, (R)—S-(2-(3-(2-hydroxy-3,3-dimethyl-4-(phosphonooxy)butanamido)propanamido)ethyl) (E)-but-2-enethioate], in the test with HepG2 cells, the activation at 10 µM is 10% and the inhibition at 50 µM is greater than 20%.

As to `CC1(CC(=O)SCCNC(=O)CCNC(=O)[C@H](O)C(C)(C)CO)OCCO1` [Compound 1252, (R)—S-(2-(3-(2,4-dihydroxy-3,3-dimethylbutanamido)propanamido)ethyl)-2-(2-methyl-1,3-dioxolan-2-yl)ethanethioate], the figures for the activation at 10 µM (in test [1] (setting [3]); in the test with HepG2 cells) were no less than 10% and greater than 20%, respectively.

With `CC(=O)SCCNC(=O)CCNC(=O)[C@H](O)C(C)(C)COC(=O)CCC(=O)O` [Compound 1242, (R)-12-hydroxy-13,13-dimethyl-2,7,11,16-tetraoxo-15-oxa-3-thia-6,10-diazanonadecan-19-oic acid], in test [1] (setting [3]), the activation at 10 µM is no less than 10%.

With `CC(C)(COC(=O)CCC(=O)O)[C@@H](O)C(=O)NCCC(=O)NCCS` [Compound 1310, (R)-4-(3-hydroxy-4-((3-((2-mercaptoethyl)amino)-3-oxopropyl)amino)-2,2-dimethyl-4-oxobutoxy)-4-oxobutanoic acid], the activation at 10 µM in test [1] (setting [3]) was no less than 10%. In addition, in the test on HepG2 cells, the activation at 10 µM is 20% and the inhibition at 50 µM is greater than 30%.

For the compound `CC(C)(CO)[C@@H](O)C(=O)NCCC(=O)NCCSC(CC(=O)OCC[N+](C)(C)C)C(=O)O` (stereo partly drawn) [Compound 51, [2-([3-carboxy-3-[(2-[3-[(2R)-2,4-dihydroxy-3,3-dimethylbutanamido]propanamido]ethyl)sulfanyl]propanoyl]oxy)ethyl]trimethylazanium], in the test with HepG2 cells, the activation at 10 µM was greater than 10%.

Consider `CC(C)(CO)[C@@H](O)C(=O)NCCC(=O)NCCSC(=O)CC(O)C(=O)O` (stereo partly drawn) [Compound 39], for which the inhibition at 50 µM with HepG2 cells is greater than 50%.

With `C[C@@H](O)CC(=O)SCCNC(=O)CCNC(=O)[C@H](O)C(C)(C)CO` [Compound 38, S-2-{3-[(R)-2,4-dihydroxy-3,3-dimethylbutyrylamino]propionylamino} ethyl (R)-3-hydroxybutanethioate], in the test with HepG2 cells, the inhibition at 50 µM was greater than 30%.

In the case of `CC(O)CC(O)CC(O)CC(=O)SCCNC(=O)CCNC(=O)[C@H](O)C(C)(C)CO` (stereo partly drawn) [Compound 401], in the test with HepG2 cells, the activation at 10 µM is greater than 10%.

Regarding `COC(=O)/C=C/C(=O)SCCNC(=O)CCNC(=O)[C@H](O)C(C)(C)COP(=O)(O)O` [Compound 73, methyl (R,E)-4-((2-(3-(2-hydroxy-3,3-dimethyl-4-(phosphonooxy)butanamido)propanamido)ethyl)thio)-4-oxobut-2-enoate], in test [1] (setting [2]), the activation at 10 µM is no less than 10%. For the same compound, in the test on HepG2 cells, the inhibition at 50 µM is greater than 30%.

On to `CC(C)(CO)[C@@H](O)C(=O)NCCC(=O)NCCSC(=O)C1CCC(=O)N1` (stereo partly drawn) [Compound 1227, S-2-{3-[(R)-2,4-dihydroxy-3,3-dimethylbutyrylamino]propionylamino}ethyl 5-oxo-2-pyrrolidinecarbothioate], for which the activation at 10 µM in test [1] (setting [3]) is no less than 10%. In the test with HepG2 cells, the inhibition at 10 µM was greater than 30%.
